Measured values reported in patent US11919902B2, “Aryl-bipyridine amine derivatives as phosphatidylinositol phosphate kinase inhibitors” (HiberCell, Inc., priority 2017, dated 2024).

Key:
GST tagged PIP4KtypeIIB = target: T1, GST tagged PIP4KtypeIIB (Homo sapiens, UniProt P78356); assay: Trans-FI P kinase assay PIP4K2B (PIP4KtypeIIB inhibition assay); type: biochemical; details: Table 4; compounds listed under IC50 range headings; 100 uM GTP, 5 nM PIP4KIIB; read-out: Trans-FI P kinase assays: PIP4K2B IC50
T1 construct: made in house; host or cells: E. coli
T1 sequence (P78356 1-416): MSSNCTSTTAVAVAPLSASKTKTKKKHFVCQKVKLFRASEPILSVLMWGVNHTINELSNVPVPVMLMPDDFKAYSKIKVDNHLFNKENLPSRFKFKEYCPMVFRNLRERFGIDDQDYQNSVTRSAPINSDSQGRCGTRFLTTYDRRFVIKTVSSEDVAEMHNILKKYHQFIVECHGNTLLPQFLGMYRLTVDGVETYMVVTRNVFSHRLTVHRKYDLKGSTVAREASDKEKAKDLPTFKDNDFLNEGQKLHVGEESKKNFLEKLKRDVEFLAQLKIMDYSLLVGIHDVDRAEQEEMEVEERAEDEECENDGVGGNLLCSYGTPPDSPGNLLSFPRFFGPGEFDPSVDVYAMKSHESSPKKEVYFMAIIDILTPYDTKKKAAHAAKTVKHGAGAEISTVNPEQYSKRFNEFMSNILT
Excerpt: GST tagged PIP4KtypeIIA and B enzymes were overexpressed in E. Coli and purified to >80% homogeneity. Phosphatidyl inositol-5-phosphate (PI5P, Cat. #850152, Avanti Polar Lipids Inc.) was used as the lipid substrate and phosphatidyl ethanolamine (DOPE 18:1, Cat. #850725, Avanti Polar Lipids Inc.) was used as the carrier lipid for assays. Ultrapure ATP and GTP was purchased from Bellbrooke Labs. ADP Glo reagents were obtained from Promega. Transcreener FI reagent was obtained from Bellbrooke labs.
1. HEPES buffer mix: 200 mM HEPES pH 7.4, 50 mM MgCl2, 0.05% v/v triton×100
2. HNE buffer: 20 mM HEPES, pH 7.4, 100 mM NaCl, 0.5 mM EGTA
3. H:E buffer: 30 mM HEPES, pH 7.4, 1 mM EGTA
GST-tagged PIP4KtypeIIB (3.4 uL, 2.77 mg/mL) was diluted to 5 mL using HNE buffer to yield 5× enzyme stock (25 nM)
Lipid Preparation: In a 10 mL pyrex glass vial, lug of PI5P and lug of DOPE were suspended in 2.5 mL of HEPES buffer mix and 2.5 mL of H:E buffer. The contents were mixed and sonicated for 3 min to yield a translucent lipid stock.
Compound Preparation: Compounds were stored as 5 mM stocks in neat DMSO as room temperature in glass vials. 5 mM stocks were diluted to 2 mM and then serially diluted (3×) in neat DMSO in 96 well polypropylene plates. From the serially diluted stocks, 3 uL was delivered into 250 uL of 25% DMSO (in water) to generate 5× compound stocks. Typically, the highest compound conc. was 24 uM.
The assay volume was kept at 25 uL. To each well of the reaction plate, 10 uL of lipid stock (1:1 ratio PI5P:DOPE) was delivered. This was followed by the addition of 5 uL of compound in 25% DMSO. Then, to each well, 5 uL of 25 nM (5×) typeIIB enzyme was delivered. The contents were mixed well and incubated for 1 h at 27 C. After 1 h, reaction was initiated by adding 5 uL of 500 uM GTP and the contents were mixed well with a multi-channel pipetteman. The final concentration of the reagents are as follows: 50 mM HEPES, pH 7.3, 10 mM MgCl2, 20 mM NaCl, 0.01% v/v triton-X100, 5% DMSO, 100 uM GTP, 80 uM (2 ug) PI5P, 2 ug DOPE, and 5 nM PIP4KIIB Typically, the highest conc. of compounds was 4.8 uM and the lowest conc. was 0.
After 2 h, the reaction was quenched by adding 25 uL of transcreener FI reagent. The contents were incubated at RT for 1 h and the Fluorescence (Ex: 584 Em: 623) was read using Molecular Devices Paradigm plate reader. […] The blanks were averaged and subtracted from all other wells. Using a calibration curve, RFU was converted to uM GDP (product). IC50 was calculated by plotting the residual activity (expressed as % No inhibitor control) vs. log [Inh. conc.] Table 2 represents PI5P4K activity of compounds (Example No.) of the invention arranged in accordance with the inhibition of PIP4K2 A kinase assay.

[1] = target: T2, PIP4K2A (full length protein, SignalChem) (Homo sapiens, UniProt P48426); assay: Kinase Assay PIP4K2 A (Sprint); ADP-Glo biochemical assay; details: Table 2; compounds listed under IC50 range headings
T2 construct: 4 nM PIP4K2A (full length protein, SignalChem); purchased SignalChem
T2 sequence (P48426 1-406): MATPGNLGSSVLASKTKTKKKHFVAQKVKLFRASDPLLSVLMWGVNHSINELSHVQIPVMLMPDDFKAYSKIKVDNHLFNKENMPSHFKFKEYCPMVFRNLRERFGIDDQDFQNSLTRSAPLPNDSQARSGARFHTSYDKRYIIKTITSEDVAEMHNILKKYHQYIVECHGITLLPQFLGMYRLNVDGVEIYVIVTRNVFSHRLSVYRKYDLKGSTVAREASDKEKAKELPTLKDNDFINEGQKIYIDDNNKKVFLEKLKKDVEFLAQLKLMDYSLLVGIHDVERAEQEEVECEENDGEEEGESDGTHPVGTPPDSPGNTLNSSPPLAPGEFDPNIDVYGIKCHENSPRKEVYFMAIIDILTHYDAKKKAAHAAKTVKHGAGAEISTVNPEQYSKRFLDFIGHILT
Outline: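 Compounds (10-point, 3-fold dilutions) were pre-incubated 15 min at RT with an enzyme/substrate mix of 4 nM full-length PIP4K2A and 100 μM PI(5)P diC8 in 20 mM MOPS pH 7.2, 25 mM MgCl2, 0.005% Tween 20. A 60 μM ATP solution was added, reaction 1 h RT; ADP read by ADP-Glo luminescence, IC50 fitted from % inhibition vs DMSO.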

Compound | IC50 (GST tagged PIP4KtypeIIB) [µM] | IC50 [1] [µM]
C[C@@H]1C[C@@H](C(C)(C)O)N(C(=O)c2cc3c(-c4cncc(-c5ccc(N6CCCC6=O)cc5)c4)ccnc3[nH]2)C1 [Example 397] | 0.1 to 1 | 0.1 to 1
CC(C)c1cncc(-c2ccc(-c3cncc(-c4ccnc5c4cc4n5CCN(C)C4=O)c3)cc2)c1 [Example 380, 4-(5-(4-(5-isopropylpyridin-3-yl)phenyl)pyridin-3-yl)-7-methyl-8,9-dihydropyrido[3′,2′:4,5]pyrrolo[1,2-a]pyrazin-6(7H)-one] | 2.5 to 5 | 1 to 2.5
Cc1[nH]nc2nccc(-c3cncc(-c4ccc(N5CCCC5=O)cc4)c3)c12 [Example 318, 1-(4-(5-(3-methyl-2H-pyrazolo[3,4-b]pyridin-4-yl)pyridin-3-yl)phenyl)pyrrolidin-2-one] | 0.1 to 1 | 1 to 2.5
CC(C)c1conc1-c1ccc(-c2cncc(-c3ccnc4c3cc3n4CCN(C)C3=O)c2)cc1 [Example 375, 4-(5-(4-(4-isopropylisoxazol-3-yl)phenyl)pyridin-3-yl)-7-methyl-8,9-dihydropyrido[3′,2′:4,5]pyrrolo[1,2-a]pyrazin-6(7H)-one] | 0.01 to 0.1 | 0.1 to 1
CN1CCn2c(cc3c(-c4cncc(-c5ccc(-c6nnc7n6CCC7)cc5)c4)ccnc32)C1=O [Example 348, 4-(5-(4-(6,7-dihydro-5H-pyrrolo[2,1-c][1,2,4]triazol-3-yl)phenyl)pyridin-3-yl)-7-methyl-8,9-dihydropyrido[3′,2′:4,5]pyrrolo[1,2-a]pyrazin-6(7H)-one] | 0.1 to 1 | 0.1 to 1
CN1CCn2c(cc3c(-c4cncc(-c5ccc(C(=O)N6CCCC6)cc5)c4)ccnc32)C1=O [Example 349, 7-methyl-4-(5-(4-(pyrrolidine-1-carbonyl)phenyl)pyridin-3-yl)-8,9-dihydropyrido[3′,2′:4,5]pyrrolo[1,2-a]pyrazin-6(7H)-one] | 0.1 to 1 | 0.1 to 1
CC(C)Cn1cnnc1-c1ccc(-c2cc(-c3ccnc4c3cc3n4CCN(CC4CC4)C3=O)cnc2N)cc1 [Example 391, 4-(6-amino-5-(4-(4-isobutyl-4H-1,2,4-triazol-3-yl)phenyl)pyridin-3-yl)-7-(cyclopropylmethyl)-8,9-dihydropyrido[3′,2′:4,5]pyrrolo[1,2-a]pyrazin-6(7H)-one] | 0.01 to 0.1 | 1 to 2.5
Cc1c[nH]c2nccc(-c3cc(-c4ccc(N5CCCC5=O)cc4)cnc3N)c12 [Example 316, 1-(4-(6-amino-5-(3-methyl-1H-pyrrolo[2,3-b]pyridin-4-yl)pyridin-3-yl)phenyl)pyrrolidin-2-one] | 0.01 to 0.1 | 1 to 2.5

Other lines, results leading:

IC50 (GST tagged PIP4KtypeIIB) [µM] | IC50 [1] [µM] | Compound
0.01 to 0.1 | 1 to 2.5 | O=C(NCc1nc2ccccc2[nH]1)c1cc2c(-c3cncc(-c4ccc(N5CCCC5=O)cc4)c3)ccnc2[nH]1 [Example 322, N-((1H-benzo[d]imidazol-2-yl)methyl)-4-(5-(4-(2-oxopyrrolidin-1-yl)phenyl)pyridin-3-yl)-1H-pyrrolo[2,3-b]pyridine-2-carboxamide]
0.01 to 0.1 | 0.1 to 1 | CC[C@H](C)n1cnnc1-c1ccc(-c2cncc(-c3ccnc4c3cc3n4CCN(C)C3=O)c2)cc1 [Example 360, (S)-4-(5-(4-(4-(sec-butyl)-4H-1,2,4-triazol-3-yl)phenyl)pyridin-3-yl)-7-methyl-8,9-dihydropyrido[3′,2′:4,5]pyrrolo[1,2-a]pyrazin-6(7H)-one]
0.1 to 1 | 0.1 to 1 | CC(C)n1cncc1-c1ccc(-c2cncc(-c3ccnc4c3cc3n4CCN(C)C3=O)c2)cc1 [Example 359, 4-(5-(4-(1-isopropyl-1H-imidazol-5-yl)phenyl)pyridin-3-yl)-7-methyl-8,9-dihydropyrido[3′,2′:4,5]pyrrolo[1,2-a]pyrazin-6(7H)-one]
0.01 to 0.1 | 1 to 2.5 | CN1CCn2c(cc3c(-c4cncc(-c5ccc(-c6nncn6CC6CC6)cc5)c4)ccnc32)C1=O [Example 376, 4-(5-(4-(4-(cyclopropylmethyl)-4H-1,2,4-triazol-3-yl)phenyl)pyridin-3-yl)-7-methyl-8,9-dihydropyrido[3′,2′:4,5]pyrrolo[1,2-a]pyrazin-6(7H)-one]
0.1 to 1 | 0.1 to 1 | CC(C)n1cnnc1-c1ccc(-c2cncc(-c3ccnc4[nH]c(C(=O)NCCCCCCCCNC(=O)COc5cccc6c5C(=O)N(C5CCC(=O)NC5=O)C6=O)cc34)c2)cc1 (stereo not shown) [Example 388, N-(8-(2-((2-(2,6-dioxopiperidin-3-yl)-1,3-dioxoisoindolin-4-yl)oxy)acetamido)octyl)-4-(5-(4-(4-isopropyl-4H-1,2,4-triazol-3-yl)phenyl)pyridin-3-yl)-1H-pyrrolo[2,3-b]pyridine-2-carboxamide]
0.01 to 0.1 | 0.005 to 0.1 | O=C(NCc1cccc2c1B(O)OC2)c1cc2c(-c3cncc(-c4ccc(N5CCCC5=O)cc4)c3)ccnc2[nH]1 [Example 379, N-((1-hydroxy-1,3-dihydrobenzo[c][1,2]oxaborol-7-yl)methyl)-4-(5-(4-(2-oxopyrrolidin-1-yl)phenyl)pyridin-3-yl)-1H-pyrrolo[2,3-b]pyridine-2-carboxamide]
0.01 to 0.1 | 0.1 to 1 | CC(C)n1cnnc1-c1ccc(-c2cncc(-c3ccnc4[nH]c(C(=O)NCc5ccccc5)cc34)c2)cc1 [Example 373, N-benzyl-4-(5-(4-(4-isopropyl-4H-1,2,4-triazol-3-yl)phenyl)pyridin-3-yl)-1H-pyrrolo[2,3-b]pyridine-2-carboxamide]
0.1 to 1 | 2.5 to 5 | CN1CCn2c(cc3c(-c4cncc(-c5ccc(-c6nncn6C6CC(F)(F)C6)cc5)c4)ccnc32)C1=O [Example 394, 4-(5-(4-(4-(3,3-difluorocyclobutyl)-4H-1,2,4-triazol-3-yl)phenyl)pyridin-3-yl)-7-methyl-8,9-dihydropyrido[3′,2′:4,5]pyrrolo[1,2-a]pyrazin-6(7H)-one]
0.01 to 0.1 | 0.1 to 1 | CC[C@@H](C)n1cnnc1-c1ccc(-c2cncc(-c3ccnc4c3cc3n4CCN(C)C3=O)c2)cc1 [Example 361, (R)-4-(5-(4-(4-(sec-butyl)-4H-1,2,4-triazol-3-yl)phenyl)pyridin-3-yl)-7-methyl-8,9-dihydropyrido[3′,2′:4,5]pyrrolo[1,2-a]pyrazin-6(7H)-one]
